# Reference: PMC8564113, “Erianin: A Direct NLRP3 Inhibitor With Remarkable Anti-Inflammatory Activity” (Frontiers in Immunology, 2021)
# Target: T1, NLRP3 (Homo sapiens, UniProt Q96P20)
# T1 construct: purified human GST-NLRP3
# Experiment: microscale thermophoresis with purified GST-NLRP3; also biotin-Eri pull-down and ATPase inhibition
# Assay type: binding
# T1 sequence (Q96P20 whole entry): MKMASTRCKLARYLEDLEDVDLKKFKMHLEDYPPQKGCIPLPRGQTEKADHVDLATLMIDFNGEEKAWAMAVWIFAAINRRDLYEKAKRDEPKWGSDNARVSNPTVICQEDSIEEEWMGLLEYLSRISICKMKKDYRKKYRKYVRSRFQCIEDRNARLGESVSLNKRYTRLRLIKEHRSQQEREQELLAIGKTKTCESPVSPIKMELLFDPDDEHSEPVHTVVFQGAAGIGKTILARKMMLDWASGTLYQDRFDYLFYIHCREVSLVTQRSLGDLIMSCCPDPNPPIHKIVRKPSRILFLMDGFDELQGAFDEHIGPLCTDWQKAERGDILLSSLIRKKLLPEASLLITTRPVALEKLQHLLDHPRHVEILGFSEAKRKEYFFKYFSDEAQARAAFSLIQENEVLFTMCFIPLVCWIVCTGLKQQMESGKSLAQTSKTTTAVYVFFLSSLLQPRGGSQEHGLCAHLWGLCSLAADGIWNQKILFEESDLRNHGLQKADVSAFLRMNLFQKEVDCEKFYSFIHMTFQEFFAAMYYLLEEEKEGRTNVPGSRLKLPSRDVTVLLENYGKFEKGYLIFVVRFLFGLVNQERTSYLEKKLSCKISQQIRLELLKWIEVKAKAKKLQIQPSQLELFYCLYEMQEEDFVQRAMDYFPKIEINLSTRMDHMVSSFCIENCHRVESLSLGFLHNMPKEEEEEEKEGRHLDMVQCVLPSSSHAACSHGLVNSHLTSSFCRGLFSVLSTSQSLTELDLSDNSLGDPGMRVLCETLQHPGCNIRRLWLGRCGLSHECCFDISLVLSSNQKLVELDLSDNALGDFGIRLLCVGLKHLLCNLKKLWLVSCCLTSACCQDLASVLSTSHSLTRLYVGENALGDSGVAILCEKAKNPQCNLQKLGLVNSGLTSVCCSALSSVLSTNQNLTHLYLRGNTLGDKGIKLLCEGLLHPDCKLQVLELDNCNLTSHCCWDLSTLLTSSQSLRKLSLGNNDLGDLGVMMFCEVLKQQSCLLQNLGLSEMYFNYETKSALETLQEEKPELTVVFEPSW
structure (smiles),measurement,value
"COc1ccc(CCc2cc(OC)c(OC)c(OC)c2)cc1O [Eri, Erianin]",Kd,~50 nM
